Results: patent US20200268703A1, “MEDICINE FOR TREATING ADVANCED OR RECURRENT CANCER PATIENT BEING NON-RESPONSIVE OR NON-TOLERANT TO STANDARD CHEMOTHERAPY AND INCURABLE AND UNRESECTABLE” (HYOGO COLLEGE OF MEDICINE, priority 2017, published 2020)

Assays:
[1] = system: advanced or recurrent oral cavity cancer; test: Tumor immunity risk index value, OS and disease course in oral cavity cancer patients given propagermanium; format: in vivo, human; settings: for OS: BSC median 46 days
Protocol: (§1) 30 mg of propagermanium [trade name: SEROCION (registered trademark), produced by SANWA KAGAKU KENKYUSHO CO., LTD.] was administered orally in three divided doses per day after meals to 4 patient cases (PG-1 to PG-4) who were diagnosed as advanced or recurrent oral cavity cancer which is non-responsive or non-tolerant to the standard chemotherapy and incurable and unresectable, a 2 patient cases (PG-5 and PG-6) who were diagnosed as advanced or recurrent gastric cancer which is non-responsive or non-tolerant to the standard chemotherapy [gastric cancer treatment guideline fourth edition (edited by Japan Gastric cancer Association, revised in May 2014)] and incurable and unresectable, and 5 healthy person cases (PG-7 to PG-11). 7.5 mL of peripheral blood of the cancer patients (PG-1 and PG-3: only before administration, PG-5 and PG-6: before administration and only 28th day after a start of administration) and healthy persons (all: only before the administration), were collected by a BD vacutainer blood collection tube at the time before the administration of the propagermanium and on 28th and 56th days after starting the administration. Thereafter, and the peripheral blood was centrifuged (1500 G for 15 minutes) to obtain the peripheral blood mononuclear cells (PBMC). The obtained peripheral blood mononuclear cells were fixed and stained using a T cell surface marker and a mouse IgG anti-human antibody against intracellular keratin. The stained cells were analyzed by flow cytometry using a Spectral Cell Analyzer (SP-6800, manufactured by SONY).
(§2) Regarding the T cells and the cytotoxic T cells, among living cells, CD45 positive and CD3 positive cells are separated to obtain T cells, and among the CD45 positive and CD3 positive cells, CD8 positive and CD4 negative cells are separated to obtain the cytotoxic T cells. The proportion of the cytotoxic T cells in the T cells was calculated.
(§3) In the circulating tumor cells in blood, in order to label the cytokeratin present inside the cells, after using Perm Buffer reagent (#421403, produced by BioLegend), staining was performed using a pankeratin antibody (#4523, produced by Cell Signaling). Since the circulating tumor cells in blood are larger than lymphocytes, when flow cytometry is performed, cells were selected in a wider range than in the selection of normal lymphocytes. After selecting cells negative in staining using Ghost Dye Violet 450 as living cells, pankeratin positive cells were regarded as the circulating tumor cells in blood, and the number of the pankeratin positive cells in 10000 peripheral blood mononuclear cells was calculated.
(§4) The calculated number of the pankeratin positive cells and the proportion of cytotoxic T cells in the T cells is substituted into Expression (1) below.
(§5) Number of pankeratin positive cells (pieces)/Proportion of cytotoxic T cells in T cells (%)/10 (I)
(§6) The disease of each patient was determined by an attending physician based on results of endoscopy, computed tomography (CT) examination, positron emission tomography (PET)-CT examination, magnetic resonance imaging (MRI) examination, X-ray (X-P) examination, and blood biochemistry examination including the major markers.

[2] = system: advanced or recurrent gastric cancer; test: Tumor immunity risk index value and disease course in gastric cancer patients given propagermanium; format: in vivo, human; settings: for Disease course / Tumor immunity risk index value: 28th day after starting administration
Protocol: as §1, §2, §3, §4, §5, §6

[3] = system: human gastric cancer cell line MKN45 (MKN45 KO cells); test: Apoptosis-inducing activity by PBMC of oral cavity cancer patient after administration of propagermanium; format: cell-based; settings: for Increase of apoptosis-inducing activity compared to before starting the administration: time point of 48 hours
Protocol: MKN45 KO cells obtained by fluorescently labeling human gastric cancer cell line MKN45 with Kurabira Orange (1×10^4 cells) were cultured using an RPMI 1640 medium containing 10% FBS in 35 mm dishes (Day 0). On next day (Day 1), the medium was changed to an F12-K medium (2 mL) containing 10% FBS, and in Experimental Example 5, a suspension of peripheral blood mononuclear cells (1×10^6 cells) separated from peripheral blood of the oral cavity cancer patient of PG-4 before the administration of the propagermanium and on 28th and 56th days after the administration in F12-K medium (1 mL) is added to the culture dish. Furthermore, 3 μL of IncuCyte (registered trademark) Caspase-3/7 Green Apoptpsis Reagent (Cat No. 4440, produced by Essen BioScience) was added and cultured. Time-lapse photography was performed every 10 minutes for 48 hours, by using BioStation (produced by Nikon Corporation) (Days 1 to 3). An animation was created from result of photography for 48 hours, and the numbers of viable gastric cancer cells (with orange fluorescence) at and apoptosis-induced gastric cancer cells (with green fluorescence) at the time points of 0, 8, 16, 24, 32, 40, and 48 hours were calculated respectively. When calculating the number of cells, 100 to 150 cells were targeted at time point of 48 hours, and cells of 4 to 5 fields of view were summed at 200 times observation by a microscope at each time point. In addition, at each time point, only cells that adhered to the culture dish and could be continuously observed were targeted for counting, and cells that were slightly out of an imaging field of stratified cells were excluded from counting.
The apoptosis-inducing activity (%) at each time point was calculated by using Expression (II) below.
{Number of apoptosis-induced gastric cancer cells/(Number of viable gastric cancer cells+Number of apoptosis-induced gastric cancer cells)}×100 (II)

[4] = patient PG-2 (oral cavity cancer)

propagermanium was tested. Which “Evaluation of the administration (effective / ineffective)” value (from here on “Evaluation … (effective / ineffective)”) ([1]; patient PG-1 (oral cavity cancer)) did it give?
The value was “ineffective”.

What about the OS ([1]; patient PG-1 (oral cavity cancer), administration discontinued midway) of the same substance?
Its OS is 39 days.

What about the Disease course ([1]; patient PG-1 (oral cavity cancer), from the start of administration) of the same substance?
The Disease course was “disease got worse”.

And the “Evaluation … (effective / ineffective)” value [1, 4]?
Its value is “effective”.

What about the Disease course ([1]; patient PG-2 (oral cavity cancer), 28th day after starting administration) of the same substance?
The Disease course was “disease was controlled”.

What about the “Tumor immunity risk index value” ([1]; patient PG-2 (oral cavity cancer), 28th day after starting administration, before 0.27) of the same substance?
The value was 1.70.

And the “Tumor immunity risk index value” ([1]; patient PG-2 (oral cavity cancer), 56th day after starting administration, before 0.27)?
The value was 4.93.

And the OS [1, 4]?
The OS was 105 days.

What about the “Evaluation … (effective / ineffective)” value ([1]; patient PG-3 (oral cavity cancer)) of the same substance?
Its value is “ineffective”.

And the OS ([1]; patient PG-3 (oral cavity cancer), administration discontinued midway)?
Its OS is 36 days.

And the Disease course ([1]; patient PG-3 (oral cavity cancer), from the start of administration)?
The Disease course was “disease got worse”.

And the “Evaluation … (effective / ineffective)” value ([1]; patient PG-4 (oral cavity cancer))?
Its value is “effective”.

And the Disease course ([1]; patient PG-4 (oral cavity cancer), 28th and 56th days after starting administration)?
The Disease course was “disease was controlled at any time point”.

And the “Tumor immunity risk index value” ([1]; patient PG-4 (oral cavity cancer), 28th day after starting administration, before 2.07)?
Its value is 0.49.

What about the “Tumor immunity risk index value” ([1]; patient PG-4 (oral cavity cancer), 56th day after starting administration, before 2.07) of the same substance?
Its value is 1.77.

What about the OS ([1]; patient PG-4 (oral cavity cancer), counted before the chemotherapy intervention) of the same substance?
Its OS is 85 days.

And the “Evaluation … (effective / ineffective)” value ([2]; patient PG-5 (gastric cancer))?
The value was “ineffective”.

What about the Disease course ([2]; patient PG-5 (gastric cancer)) of the same substance?
The Disease course was “disease progressed”.

What about the “Tumor immunity risk index value” ([2]; patient PG-5 (gastric cancer), before 5.04) of the same substance?
Its value is 9.55.

And the “Evaluation … (effective / ineffective)” value ([2]; patient PG-6 (gastric cancer))?
Its value is “effective”.

What about the Disease course ([2]; patient PG-6 (gastric cancer)) of the same substance?
Its Disease course is “disease was controlled”.

And the “Tumor immunity risk index value” ([2]; patient PG-6 (gastric cancer), before 41.12)?
The value was 0.31.

And the “Increase of apoptosis-inducing activity compared to before starting the administration” value ([3]; 28th day after starting administration)?
Its value is “approximately 3.1 times”.

What about the “Increase of apoptosis-inducing activity compared to before starting the administration” value ([3]; 56th day after starting administration) of the same substance?
Its value is “approximately 3.7 times”.

And the Apoptosis-inducing activity ([3]; PBMC of patient PG-4, 28th day after starting administration, culture for 0 hours)?
The Apoptosis-inducing activity was 0.00%.

What about the Apoptosis-inducing activity ([3]; PBMC of patient PG-4, 28th day after starting administration, culture for 48 hours, before administration 4.00) of the same substance?
Its Apoptosis-inducing activity is 12.50%.

What about the Apoptosis-inducing activity ([3]; PBMC of patient PG-4, 56th day after starting administration, culture for 0 hours) of the same substance?
The Apoptosis-inducing activity was 0.00%.

What about the Apoptosis-inducing activity ([3]; PBMC of patient PG-4, 56th day after starting administration, culture for 48 hours, before administration 4.00) of the same substance?
Its Apoptosis-inducing activity is 14.60%.
